Read-outs that look alike come from different tables or passages of the source.
Columns and labels:
SARS-CoV-2 replicon [1] = assay: microbe, parasite or virus in culture; type: cell-based; details: for IC50: BHK-21 cells, read-out: IC50, SARS-CoV-2 replicon luciferase activity
[2] = tested on: Zika virus (ZIKV) replicon; assay: ZIKV replicon luciferase assay in BHK-21 cells; type: cell-based; details: both 6 and 24 h posttransfection
Method: FIG 4 PKC inhibitors play an antiviral role during the early stage of SARS-CoV-2 replication. (A to E) Effect of PKC inhibitors on protein translation. BHK-21 cells were pretreated with DMSO or the indicated inhibitors for 1 h, followed by transfection with SARS-CoV-2 replicon RNA, GFP- or Renilla luciferase-expressing plasmids, or ZIKV replicon RNA. Luciferase assays or Western blot assays were performed at the indicated hours after transfection. MW, molecular weight; RLU, relative luciferase units. (F) Effect of PKC inhibitors on 3CL^pro activity. The protein activities were determined using a 2019 nCoV M^pro/3CL^pro inhibitor screening kit. SARS-CoV-2 3CL^pro, the substrate, and the inhibitors were incubated at 37°C for 5 min, and […] were measured at 490 nm using a multimode plate reader. […] P values were calculated by ANOVA with Dunnett’s multiple-comparison test or unpaired, two-tailed Student’s t tests (*, P < 0.05; **, P < 0.01; ***, P < 0.001; ****, P < 0.0001; NS, not significant).
To test whether these inhibitors specifically block viral protein translation, we compared the expression levels of ectopically expressed green fluorescent protein (GFP) or Renilla luciferase in the absence and presence of the PKC inhibitor. At 24 h posttransfection, the GFP protein levels or relative Renilla luciferase activities were determined by a Western blot or luciferase assay. […]

BHK-21 cells = assay: CCK8 cell viability assay in BHK-21 cells; type: cell-based, hamster; details: 24 h
Method: (§1) Cell viabilities were analyzed using cell counting kit 8 (CCK8) (catalog no. HY-K0301; MCE) according to the manufacturer’s instructions. Ten microliters of the CCK8 reagent was added to each well of a 96-well plate. After incubation at 37°C for 1 h, optical density (OD) values were measured at 450 nm using a BioTek instrument. The CC50 was calculated by nonlinear regression analysis.

[3] = tested on: GFP- or Renilla luciferase-expressing plasmids; type: cell-based, hamster; details: BHK-21, 24 h posttransfection; for GFP levels vs DMSO-treated cells: Western blot
Huh7 cells = assay: CCK8 cell viability assay in Huh7 cells; type: cell-based, human; details: human Huh7 cells; 24 h
Method: as §1

SARS-CoV-2 replicon [4] = assay: microbe, parasite or virus in culture; type: cell-based; details: human Huh7 cells, read-out: IC50, SARS-CoV-2 replicon luciferase activity
wild-type SARS-CoV-2 [5] = type: cell-based; details: A549-ACE2; pretreated 1 h; MOI 0.8; 24 h p.i.; DMSO 20%
SARS-CoV-2 pseudovirus = type: cell-based; details: pretreated 1 h, % of DMSO
wild-type SARS-CoV-2 [6] = assay: Wild-type SARS-CoV-2 infection of A549-ACE2 cells, qRT-PCR of supernatant viral RNA; type: cell-based; details: 10 μM inhibitor, MOI 0.8, 24 h p.i.
A549-ACE2 cells = assay: CCK8 cell viability assay in A549-ACE2 cells; type: cell-based, human
Method: as §1

SARS-CoV-2 3CL^pro = biological target: T1, SARS-CoV-2 3CL^pro (Severe acute respiratory syndrome coronavirus 2, UniProt P0DTD1); type: biochemical; details: 37°C, 5 min incubation
T1 construct: One microliter of SARS-CoV-2 3CL^pro reagent; purchased Beyotime P0312S

[7] = CCK8 cell viability assay in BHK-21 cells; type: cell-based, hamster
Method: as §1

[8] = CCK8 cell viability assay in Huh7 cells; type: cell-based, human
Method: as §1

[9] = CCK8 cell viability assay in A549-ACE2 cells; type: cell-based, human; details: human
Method: as §1

[10] = BHK-21 cells, read-out: CC50 (CCK8 cell viability)
[11] = BHK-21, pretreated 1 h, […], vs DMSO
[12] = Severe acute respiratory syndrome coronavirus 2, pretreated 1 h, […]
[13] = Severe acute respiratory syndrome coronavirus 2, Huh-7, 24 h
[14] = human Huh7 cells, 24 h, read-out: CC50 (CCK8 cell viability)

## CN(C)CCCn1cc(C2=C(c3c[nH]c4ccccc34)C(=O)NC2=O)c2ccccc21 [bisindolylmaleimide I]
SARS-CoV-2 replicon [1]
  relative luciferase activity lower than that in DMSO-treated cells: ~96%
  replicon luciferase activities at all tested time points vs DMSO: constantly lower
SARS-CoV-2 replicon [1]; pretreated 1 h, […]
  IC50: 0.386 µM
[2]
  replication levels of the ZIKV replicon: barely affected
BHK-21 cells; [10]
  CC50: 15.9 µM
[3]
  Renilla luciferase activities vs DMSO-treated cells: comparable
  GFP levels vs DMSO-treated cells: comparable
Huh7 cells
  CC50: 30 µM
SARS-CoV-2 replicon [4]
  IC50: 0.413 µM
wild-type SARS-CoV-2 [5]
  percentage of N-positive cells: 3%
SARS-CoV-2 pseudovirus
  luciferase activity of pseudovirus relative to DMSO-treated cells (entry): ~24%
wild-type SARS-CoV-2 [6]
  viral RNA level in supernatant, fold lower than DMSO: ~16 fold
A549-ACE2 cells
  CC50: 50.9 µM

## COc1ccc2c(c1)c(C1=C(c3c[nH]c4ccccc34)C(=O)NC1=O)cn2CCCN(C)C [Go 6983]
SARS-CoV-2 replicon [1]
  relative luciferase activity lower than that in DMSO-treated cells: about 99%
  replicon luciferase activities at all tested time points vs DMSO: constantly lower
SARS-CoV-2 replicon [1]; pretreated 1 h, […]
  IC50: 0.087 µM
[2]
  replication levels of the ZIKV replicon: barely affected
BHK-21 cells; [10]
  CC50: 16.9 µM
[3]
  Renilla luciferase activities vs DMSO-treated cells: comparable
  GFP levels vs DMSO-treated cells: comparable
Huh7 cells
  CC50: 24.9 µM
SARS-CoV-2 replicon [4]
  IC50: 0.361 µM
wild-type SARS-CoV-2 [5]
  percentage of N-positive cells: 12%
SARS-CoV-2 pseudovirus
  luciferase activity of pseudovirus relative to DMSO-treated cells (entry): about 35%
wild-type SARS-CoV-2 [6]
  viral RNA level in supernatant, fold lower than DMSO: about 12 fold
A549-ACE2 cells
  CC50: 50 µM

## O=c1c2ccccc2[se]n1-c1ccccc1 [ebselen]
SARS-CoV-2 replicon [1]; [11]
  replicon luciferase activity at 6 h (protein translation / polyprotein cleavage): reduced
SARS-CoV-2 3CL^pro
  SARS-CoV-2 3CLpro protease activity: dramatically reduced

## CCC(CC)COC(=O)[C@H](C)N[P@](=O)(OC[C@H]1O[C@@](C#N)(c2ccc3c(N)ncnn23)[C@H](O)[C@@H]1O)Oc1ccccc1 [remdesivir]
SARS-CoV-2 replicon [1]; [11]
  replicon luciferase activity at 6 h (protein translation / polyprotein cleavage): did not alter
  replicon luciferase activity at 24 h (RNA synthesis): significantly reduced

## Cn1cc(C2=C(c3cn(C4CCN(Cc5ccccn5)CC4)c4ccccc34)C(=O)NC2=O)c2ccccc21 [enzastaurin]
SARS-CoV-2 replicon [1]
  relative luciferase activity lower than that in DMSO-treated cells: ~92%
  replicon luciferase activities at all tested time points vs DMSO: constantly lower
SARS-CoV-2 replicon [1]; [12]
  IC50: 0.929 µM
[7]; hamster, CC50 (CCK8 cell viability)
  CC50 at 24 h: > 160 µM
BHK-21 cells; hamster
  CC50: 160 µM
[8]; human
  CC50 at 24 h: 86.4 µM
SARS-CoV-2 replicon [4]; [13]
  IC50: 0.93 µM
wild-type SARS-CoV-2 [5]
  percentage of N-positive cells: 12%
SARS-CoV-2 pseudovirus
  luciferase activity of pseudovirus relative to DMSO-treated cells (entry): ~42%
wild-type SARS-CoV-2 [6]
  viral RNA level in supernatant, fold lower than DMSO: ~3 fold
[9]
  CC50: 80 µM

## CC(=O)c1c(O)c(C)c(O)c(Cc2c(O)c3c(c(C(=O)/C=C/c4ccccc4)c2O)OC(C)(C)C=C3)c1O [rottlerin]
SARS-CoV-2 replicon [1]; [12]
  IC50: 0.479 µM
[7]; hamster; BHK-21 cells; 24 h; read-out: CC50 (CCK8 cell viability)
  CC50 at 24 h: 1.43 µM
[8]; [14]
  CC50 at 24 h: 4.46 µM
SARS-CoV-2 replicon [4]; [13]
  IC50: 0.33 µM

## CN1CCN(c2nc(C3=C(c4c[nH]c5ccccc45)C(=O)NC3=O)c3ccccc3n2)CC1 [sotrastaurin]
SARS-CoV-2 replicon [1]
  relative luciferase activity lower than that in DMSO-treated cells: ~89%
  replicon luciferase activities at all tested time points vs DMSO: constantly lower
SARS-CoV-2 replicon [1]; [12]
  IC50: 2.67 µM
[7]; hamster, BHK-21 cells; 24 h; read-out: CC50 (CCK8 cell viability)
  CC50 at 24 h: 82.2 µM
[8]; [14]
  CC50 at 24 h: 50.8 µM
SARS-CoV-2 replicon [4]; [13]
  IC50: 1.9 µM
SARS-CoV-2 pseudovirus
  luciferase activity of pseudovirus relative to DMSO-treated cells (entry): ~55%

Reference: article PMC9603170, “Protein Kinase C Inhibitors Reduce SARS-CoV-2 Replication in Cultured Cells” (Microbiology Spectrum, 2022)
